# US8629101B2, “Cholesterol derivatives of inhibitors of viral fusion” (priority 2007, dated 2014)
# Where a SMILES comes first, the peptide text is derived from it. The star is where a group is joined. X1 = CC(C)CCC[C@@H](C)[C@H]1CC[C@H]2[C@@H]3CC=C4C[C@@H](OC(=O)C*)CC[C@]4(C)[C@H]3CC[C@]12C
# What was measured:
# HIV-1 (HXB2) = assay type: cell-based; details: read-out: IC50 antiviral activity
# Excerpt: The antiviral activity of a peptide from the membrane-proximal external region (MPER) of gp41, which also includes the epitope of monoclonal antibody (MAb) 2F5, […] […] Accordingly, when peptide […] […] Moreover, the nature of the lipid was important, since a bis-Lys(N^ε-Palmitoyl) group was ineffective. Details of the assay used can be found in Joyce et al, J. Biol Chem., 2002, 277, 45811-45820.
# HIV-HXB2 [1] = test system: HIV-HXB2
# multiple HIV-1 isolates = experiment: single-cycle infectivity assay across the panel of viral strains; details: variety of viral strains
# Method: HIV-1 Infectivity Assay (31). P4-2/R5 cells (HeLa cells expressing endogenous CXCR4 and stably transfected to express CD4 and CCR5 which also contain an integrated β-galactosidase reporter gene under control of an HIV LTR promoter) maintained in phenol red-free Dulbecco's modified Eagle's medium, 10% fetal bovine serum, 1% penicillin/streptomycin were seeded in 96-well plates at 2.5×10^3 cells/well and infected the following day with the HXB2 strain (and a variety of other strains in some cases) of HIV-1 (Advanced Biotechnology Inc., Bethesda, Md.) in the presence of titrations of the test inhibitory peptides at 37° C. After 48 h incubation with both virus and inhibitory peptides, cells were lysed and β-galactosidase was detected using Gal Screen™ chemiluminescent substrate (Applied Biosystems, Foster City, Calif.) according to the manufacturer's instructions. Data were obtained using a Dynex luminometer and IC50 values were calculated by KaleidaGraph.
# [2] = pharmacokinetics after intraperitoneal injection into the mouse; assay type: in vivo; details: ip
# Excerpt: Effect of lipid derivatization on the pharmacokinetic properties of C34-chol. In addition to providing improved antiviral potency, derivatization with cholesterol also extends the half-life of the peptide in vivo.
# HIV-HXB2 [3] = experiment: pre-incubation of peptide with P4-2/R5 cells with/without wash, then HIV-HXB2 infection; assay type: cell-based, HIV-1; details: with wash versus no wash
# Method: After 48 h, the antiviral activities of the residual peptides that survive the washing steps were determined by measuring the f3-galactosidase activities within lysed cells as described above.
compound,measurement,setting,value
CC(=O)N[C@@H](CCC(=O)O)C(=O)N[C@@H](CC(C)C)C(=O)N[C@@H](CC(C)C)C(=O)N[C@@H](CCC(=O)O)C(=O)N[C@@H](CC(C)C)C(=O)N[C@@H](CC(=O)O)C(=O)N[C@@H](CCCCN)C(=O)N[C@@H](Cc1c[nH]c2ccccc12)C(=O)N[C@@H](C)C(=O)N[C@@H](CO)C(=O)N[C@@H](CC(C)C)C(=O)N[C@@H](Cc1c[nH]c2ccccc12)C(=O)N[C@@H](CSCC(=O)O[C@H]1CC[C@@]2(C)C(=CC[C@H]3[C@@H]4CC[C@H]([C@H](C)CCCC(C)C)[C@@]4(C)CC[C@@H]32)C1)C(N)=O (Ac-ELLELDKWASLWC(X1)-NH2),IC50,HIV-1 (HXB2),5850 nM
CC[C@H](C)[C@H](NC(=O)[C@H](CC(C)C)NC(=O)[C@H](CO)NC(=O)[C@H](Cc1c[nH]cn1)NC(=O)[C@@H](NC(=O)[C@H](CC(C)C)NC(=O)[C@H](CO)NC(=O)[C@@H](NC(=O)[C@H](Cc1ccc(O)cc1)NC(=O)[C@H](CC(N)=O)NC(=O)[C@H](CC(N)=O)NC(=O)[C@@H](NC(=O)[C@H](CCC(=O)O)NC(=O)[C@H](CCCNC(=N)N)NC(=O)[C@H](CC(=O)O)NC(=O)[C@H](Cc1c[nH]c2ccccc12)NC(=O)[C@H](CCC(=O)O)NC(=O)[C@H](CCSC)NC(=O)[C@H](Cc1c[nH]c2ccccc12)NC(=O)CNC(=O)[C@H](CO)NC(=O)CNC(=O)[C@H](CSCC(=O)O[C@H]1CC[C@@]2(C)C(=CC[C@H]3[C@@H]4CC[C@H]([C@H](C)CCCC(C)C)[C@@]4(C)CC[C@@H]32)C1)NC(C)=O)[C@@H](C)CC)[C@@H](C)O)[C@@H](C)CC)C(=O)N[C@@H](CCC(=O)O)C(=O)N[C@@H](CCC(=O)O)C(=O)N[C@@H](CO)C(=O)N[C@@H](CCC(N)=O)C(=O)N[C@@H](CC(N)=O)C(=O)N[C@@H](CCC(N)=O)C(=O)N[C@@H](CCC(N)=O)C(=O)N[C@@H](CCC(=O)O)C(=O)N[C@@H](CCCCN)C(=O)N[C@@H](CC(N)=O)C(=O)N[C@@H](CCC(=O)O)C(=O)N[C@@H](CCC(N)=O)C(=O)N[C@@H](CCC(=O)O)C(=O)N[C@@H](CC(C)C)C(=O)N[C@@H](CC(C)C)C(N)=O [Chol-C34],decrease of antiviral activity compared to underivatized C34,HIV-HXB2 [1]; cholesterol at the N-terminus,50 fold
CC[C@H](C)[C@H](NC(=O)[C@H](CC(C)C)NC(=O)[C@H](CO)NC(=O)[C@H](Cc1c[nH]cn1)NC(=O)[C@@H](NC(=O)[C@H](CC(C)C)NC(=O)[C@H](CO)NC(=O)[C@@H](NC(=O)[C@H](Cc1ccc(O)cc1)NC(=O)[C@H](CC(N)=O)NC(=O)[C@H](CC(N)=O)NC(=O)[C@@H](NC(=O)[C@H](CCC(=O)O)NC(=O)[C@H](CCCNC(=N)N)NC(=O)[C@H](CC(=O)O)NC(=O)[C@H](Cc1c[nH]c2ccccc12)NC(=O)[C@H](CCC(=O)O)NC(=O)[C@H](CCSC)NC(=O)[C@H](Cc1c[nH]c2ccccc12)NC(C)=O)[C@@H](C)CC)[C@@H](C)O)[C@@H](C)CC)C(=O)N[C@@H](CCC(=O)O)C(=O)N[C@@H](CCC(=O)O)C(=O)N[C@@H](CO)C(=O)N[C@@H](CCC(N)=O)C(=O)N[C@@H](CC(N)=O)C(=O)N[C@@H](CCC(N)=O)C(=O)N[C@@H](CCC(N)=O)C(=O)N[C@@H](CCC(=O)O)C(=O)N[C@@H](CCCCN)C(=O)N[C@@H](CC(N)=O)C(=O)N[C@@H](CCC(=O)O)C(=O)N[C@@H](CCC(N)=O)C(=O)N[C@@H](CCC(=O)O)C(=O)N[C@@H](CC(C)C)C(=O)N[C@@H](CC(C)C)C(=O)NCC(=O)N[C@@H](CO)C(=O)NCC(=O)N[C@@H](CSCC(=O)O[C@H]1CC[C@@]2(C)C(=CC[C@H]3[C@@H]4CC[C@H]([C@H](C)CCCC(C)C)[C@@]4(C)CC[C@@H]32)C1)C(N)=O [Peptide C34-Chol],breadth of antiviral response,multiple HIV-1 isolates,comparable IC50 in all strains
same,potency relative to underivatized or cys-alkylated C34 across the whole panel,multiple HIV-1 isolates,~50 fold
same,plasma concentration at 24 h as multiple of the measured IC50,"[2]; […], 24 h, versus IC50 7 pM",> 500 fold
same,AUC(0-t),"[2]; plasma, 3.5 mg/kg",11.5 µM·h
same,Cmax,"[2]; plasma, 3.5 mg/kg",3100 nM
same,Tmax,"[2]; plasma, 3.5 mg/kg",4 h
same,CL/F,"[2]; plasma, 3.5 mg/kg, read-out: CI/F",0.6 mL/min/kg
same,level at time molar at 24 h,"[2]; plasma, intraperitoneal, 3.5 mg/kg, 24 h, read-out: plasma concentration still detectable after 24 h",~60 nM
same,increase of antiviral potency over C34 and C34-Aceta,HIV-HXB2 [1],50 fold
same,potency relative to enfuvirtide/FUZEON,HIV-HXB2 [1],~100 fold
same,IC50 fold change,HIV-HXB2 [3],7 fold
CCCCCCCCCCCCCCCC(=O)NCCCC[C@H](NC(=O)CNC(=O)[C@H](CO)NC(=O)CNC(=O)[C@H](CC(C)C)NC(=O)[C@H](CC(C)C)NC(=O)[C@H](CCC(=O)O)NC(=O)[C@H](CCC(N)=O)NC(=O)[C@H](CCC(=O)O)NC(=O)[C@H](CC(N)=O)NC(=O)[C@H](CCCCN)NC(=O)[C@H](CCC(=O)O)NC(=O)[C@H](CCC(N)=O)NC(=O)[C@H](CCC(N)=O)NC(=O)[C@H](CC(N)=O)NC(=O)[C@H](CCC(N)=O)NC(=O)[C@H](CO)NC(=O)[C@H](CCC(=O)O)NC(=O)[C@H](CCC(=O)O)NC(=O)[C@@H](NC(=O)[C@H](CC(C)C)NC(=O)[C@H](CO)NC(=O)[C@H](Cc1c[nH]cn1)NC(=O)[C@@H](NC(=O)[C@H](CC(C)C)NC(=O)[C@H](CO)NC(=O)[C@@H](NC(=O)[C@H](Cc1ccc(O)cc1)NC(=O)[C@H](CC(N)=O)NC(=O)[C@H](CC(N)=O)NC(=O)[C@@H](NC(=O)[C@H](CCC(=O)O)NC(=O)[C@H](CCCNC(=N)N)NC(=O)[C@H](CC(=O)O)NC(=O)[C@H](Cc1c[nH]c2ccccc12)NC(=O)[C@H](CCC(=O)O)NC(=O)[C@H](CCSC)NC(=O)[C@H](Cc1c[nH]c2ccccc12)NC(C)=O)[C@@H](C)CC)[C@@H](C)O)[C@@H](C)CC)[C@@H](C)CC)C(N)=O [Peptide C34-Pam],antiviral activity relative to underivatized C34,HIV-HXB2 [1],comparable activity to underivatized C34
enfuvirtide,IC50,"HIV-HXB2 [1]; read-out: IC50 viral infectivity, mean ± SEM of three independent experiments (Table 2)",0.692 ± 0.245 nM
